Experimental findings from patent US20240182445A1 (ONO PHARMACEUTICAL CO., LTD., priority 2019, published 2024) are described below.

The first assay has as its target T1, human TREK-1 (Homo sapiens, UniProt O95069).
T1 construct: expressed in transfected cells
T1 sequence (O95069 1-426): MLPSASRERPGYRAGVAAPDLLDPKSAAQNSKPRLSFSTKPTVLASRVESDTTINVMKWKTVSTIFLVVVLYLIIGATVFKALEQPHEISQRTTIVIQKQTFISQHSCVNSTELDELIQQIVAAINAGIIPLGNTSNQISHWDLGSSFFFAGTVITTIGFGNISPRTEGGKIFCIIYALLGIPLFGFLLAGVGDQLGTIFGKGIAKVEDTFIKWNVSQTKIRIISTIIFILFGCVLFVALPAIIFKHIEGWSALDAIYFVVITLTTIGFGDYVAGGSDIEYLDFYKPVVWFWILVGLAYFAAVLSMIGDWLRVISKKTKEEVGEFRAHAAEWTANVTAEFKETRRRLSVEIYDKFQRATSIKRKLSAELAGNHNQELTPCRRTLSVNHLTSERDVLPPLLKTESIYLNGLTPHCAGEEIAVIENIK
The experiment in a line: TREK-1 Thallium (Tl+) flux assay, Method 1. Type of assay: cell-based. Particulars: TREK-1 Thallium (Tl+) flux assay, Method 1. In a few lines:
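Readout: Thallos fluorescence ratio, taken 25 s post-thallium relative to the pre-thallium baseline average, then converted to % inhibition. Cells were CHO-K1 stably expressing human TREK-1, dye-loaded and exposed to test compound (vehicle 0.3% DMSO) for 10 min prior to thallium stimulation.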
As usually defined, the IC50 is the concentration that inhibits the measured activity by half. A high value points to weaker potency in that assay. The molecule `COc1ncc(-c2cnc(NC(=O)c3c(Cl)cnn3C3CCN(C(C)=O)CC3)c(C)c2)cc1Cl` [Compound 425, 1-(1-acetylpiperidin-4-yl)-4-chloro-N-(5′-chloro-6′-methoxy-5-methyl-[3,3′-bipyridin]-6-yl)-1H-pyrazole-5-carboxamide] had an IC50 of 5050 nM.
For `Cc1cc(-c2ccc(-c3cccs3)cc2)cnc1NC(=O)c1c(Cl)cnn1C1CCN(C(=O)OC(C)(C)C)CC1` [Compound 410, tert-butyl 4-(4-chloro-5-((3-methyl-5-(4-(thiophen-2-yl)phenyl)pyridin-2-yl)carbamoyl)-1H-pyrazol-1-yl)piperidine-1-carboxylate], 2780 nM corresponded to half-maximal inhibition (IC50).
Still for that read-out and setting: with `CC(=O)N1CCC(n2ncc(Cl)c2C(=O)Nc2ncc(-c3cc(F)c(Cl)c(F)c3)cc2C)CC1` [Compound 426, 1-(1-acetylpiperidin-4-yl)-4-chloro-N-(5-(4-chloro-3,5-difluorophenyl)-3-methylpyridin-2-yl)-1H-pyrazole-5-carboxamide] the figure was 5120 nM; with `Cc1cc(OCc2ccccc2)ccc1NC(=O)c1c(Cl)cnn1CC1CN(C(=O)C2COCCO2)CCO1` (stereo not shown) [Compound 412, 1-((4-(1,4-dioxane-2-carbonyl)morpholin-2-yl)methyl)-N-(4-(benzyloxy)-2-methylphenyl)-4-chloro-1H-pyrazole-5-carboxamide], 3000 nM; with `Cc1cc(-c2cnn(-c3ccc(F)cc3)c2)cnc1NC(=O)c1c(Cl)cnn1[C@H]1CCOC1` [Compound 395, (S)-4-chloro-N-(5-(1-(4-fluorophenyl)-1H-pyrazol-4-yl)-3-methylpyridin-2-yl)-1-(tetrahydrofuran-3-yl)-1H-pyrazole-5-carboxamide], 1420 nM.

Staying with this assay, now noted: TREK-1 Thallium (Tl+) flux assay; no *^12 (Method 2) mark on these rows.
The molecule `CC(=O)N1CCCC(Cn2ncc(Cl)c2C(=O)Nc2ncc(C#Cc3ccc(F)cc3)cc2C)C1` (stereo not shown) [Compound 248, 1-((1-acetylpiperidin-3-yl)methyl)-4-chloro-N-(5-((4-fluorophenyl)ethynyl)-3-methylpyridin-2-yl)-1H-pyrazole-5-carboxamide] registered an IC50 of 390 nM.
`O=C(Nc1ncc(C#Cc2ccccc2)cc1Cl)c1c(Cl)cnn1[C@@H]1CCOC1` [Compound 376, (R)-4-chloro-N-(3-chloro-5-(phenylethynyl)pyridin-2-yl)-1-(tetrahydrofuran-3-yl)-1H-pyrazole-5-carboxamide] came in with an IC50 of 1540 nM.
Same read-out and setting: with `Cc1cc(C#Cc2ccccc2)cnc1NC(=O)c1c(Cl)cnn1[C@H]1CCN(C(=O)OC(C)(C)C)C1` [Compound 298, tert-butyl (S)-3-(4-chloro-5-((3-methyl-5-(phenylethynyl)pyridin-2-yl)carbamoyl)-1H-pyrazol-1-yl)pyrrolidine-1-carboxylate] the figure was 540 nM.
On the same count and under the same terms, with `Cc1cc(OCc2ccccc2)ccc1NC(=O)c1c(Cl)cnn1[C@H]1CC[C@@H](NC(=O)C2COCCO2)CC1` (stereo partly drawn) [Compound 380, 1-(cis-4-(1,4-dioxane-2-carboxamido)cyclohexyl)-N-(4-(benzyloxy)-2-methylphenyl)-4-chloro-1H-pyrazole-5-carboxamide] the figure was 380 nM; with `CC(C)(C)OC(=O)N[C@@H]1CC[C@@H](n2ncc(Cl)c2C(=O)Nc2ncc(C#Cc3ccccc3)cc2F)C1` [Compound 221, tert-butyl ((1R,3R)-3-(4-chloro-5-((3-fluoro-5-(phenylethynyl)pyridin-2-yl)carbamoyl)-1H-pyrazol-1-yl)cyclopentyl)carbamate], 340 nM; with `Cc1cc(C#Cc2ccc(F)cc2)cnc1NC(=O)c1c(Cl)cnn1C[C@@H]1CCCN(C(=O)OC(C)(C)C)C1` [Compound 344, tert-butyl (R)-3-((4-chloro-5-((5-((4-fluorophenyl)ethynyl)-3-methylpyridin-2-yl)carbamoyl)-1H-pyrazol-1-yl)methyl)piperidine-1-carboxylate], 760 nM.

The same assay, now with this note: TREK-1 Thallium (Tl+) flux assay; values without footnote *12 are Method 1.
As to `Cc1cc(C#Cc2ccccc2)cnc1NC(=O)c1c(Cl)cnn1[C@H]1CC[C@H](NC(=O)C(C)C)CC1` [Compound 191, 4-chloro-1-(trans-4-isobutyramidocyclohexyl)-N-(3-methyl-5-(phenylethynyl)pyridin-2-yl)-1H-pyrazole-5-carboxamide], half-maximal inhibition (IC50) was put at 290 nM.
On the same count and under the same terms, with `CC(=O)N1CC(Cn2ncc(Cl)c2C(=O)Nc2ncc(C#Cc3ccccc3)cc2F)C1` [Compound 93, 1-((1-acetylazetidin-3-yl)methyl)-4-chloro-N-(3-fluoro-5-(phenylethynyl)pyridin-2-yl)-1H-pyrazole-5-carboxamide] the figure was 180 nM.
`Cc1cc(C#Cc2ccccc2)cnc1NC(=O)c1c(Cl)cnn1C1CCN(C(=O)C2CC2)C1` (stereo not shown) [Compound 79, 4-chloro-1-(1-(cyclopropanecarbonyl)pyrrolidin-3-yl)-N-(3-methyl-5-(phenylethynyl)pyridin-2-yl)-1H-pyrazole-5-carboxamide] registered an IC50 of 160 nM. This IC50 and that of the molecule before are within 1.5-fold of each other.
The same measure, in the same setting: with `CC(=O)N1CCOC(Cn2ncc(Cl)c2C(=O)Nc2ncc(C#Cc3ccccc3)cc2C)C1` (stereo not shown) [Compound 105, 1-((4-acetylmorpholin-2-yl)methyl)-4-chloro-N-(3-methyl-5-(phenylethynyl)pyridin-2-yl)-1H-pyrazole-5-carboxamide] the figure was 190 nM; with `Cc1cc(C#Cc2ccccc2)cnc1NC(=O)c1c(Cl)cnn1C(C)C1CCN(C(=O)OC(C)(C)C)CC1` (stereo not shown) [Compound 77, tert-butyl 4-(1-(4-chloro-5-((3-methyl-5-(phenylethynyl)pyridin-2-yl)carbamoyl)-1H-pyrazol-1-yl)ethyl)piperidine-1-carboxylate], 160 nM; with `CC(=O)N1CCC(C(C)n2ncc(Cl)c2C(=O)Nc2ncc(C#Cc3ccccc3)cc2F)CC1` (stereo not shown) [Compound 35, 1-(1-(1-acetylpiperidin-4-yl)ethyl)-4-chloro-N-(3-fluoro-5-(phenylethynyl)pyridin-2-yl)-1H-pyrazole-5-carboxamide], 110 nM.
In the case of `Cc1cc(C#Cc2cccs2)cnc1NC(=O)c1c(Cl)cnn1CC1CCN(C(=O)C(C)C)CC1` [Compound 76, 4-chloro-1-((1-isobutyrylpiperidin-4-yl)methyl)-N-(3-methyl-5-(thiophen-2-ylethynyl)pyridin-2-yl)-1H-pyrazole-5-carboxamide], the IC50 came out at 160 nM.
Turning to `CC(=O)N1CC[C@@H](n2ncc(Cl)c2C(=O)Nc2ncc(C#Cc3ccccc3)cc2C)[C@H](F)C1` [Compound 30, […]], inhibition was half-maximal at 100 nM (IC50).
For the molecule `Cc1cc(C#Cc2ccccc2)cnc1NC(=O)c1c(Cl)cnn1CC1(F)CCN(C(=O)OC(C)(C)C)CC1` [Compound 155, tert-butyl 4-((4-chloro-5-((3-methyl-5-(phenylethynyl)pyridin-2-yl)carbamoyl)-1H-pyrazol-1-yl)methyl)-4-fluoropiperidine-1-carboxylate], inhibition was half-maximal at 240 nM (IC50).
Still for that read-out and setting: with `CC(=O)N1CCC(C#N)(Cn2ncc(Cl)c2C(=O)Nc2ncc(C#Cc3ccccc3)cc2F)CC1` [Compound 39, 1-((1-acetyl-4-cyanopiperidin-4-yl)methyl)-4-chloro-N-(3-fluoro-5-(phenylethynyl)pyridin-2-yl)-1H-pyrazole-5-carboxamide] the figure was 120 nM; with `CC(=O)N1CCC(n2ncc(Br)c2C(=O)Nc2ncc(C#Cc3ccccc3)cc2C)CC1` [Compound 17, 1-(1-acetylpiperidin-4-yl)-4-bromo-N-(3-methyl-5-(phenylethynyl)pyridin-2-yl)-1H-pyrazole-5-carboxamide], 40 nM.
